# Test system: topoisomerase II
# Assay: Measurement of topoisomerase II inhibitory activity (kDNA decatenation, agarose gel electrophoresis and densitometry)
# Assay type: biochemical, rat
# Protocol: Test Example 1 Measurement of Topoisomerase II Inhibitory Activity
# (A) Extraction of crude topoisomerase II from rat infant brain nuclei (IBN)
# IBN (11.98 mg/ml in 50% glycerol) (4.2 µl) was fractionated and subjected to centrifugation (3,000 × g, one minute), to thereby remove glycerol. The thus-obtained pellet was suspended in a nuclear extraction buffer (20 mM Tris-HCl (pH 7.5), 0.3 M NaCl, 140 mM β-Me, […], 20 mM PMSF) (10 µl), and the suspension was incubated in ice for 30 minutes. Subsequently, the suspension was subjected to centrifugation (10,000 × g, 10 minutes) and supernatant was fractionated, to thereby obtain crude topoisomerase II. The thus-obtained topoisomerase II was diluted on the basis of activity.
# (B) Dilution of purified topoisomerase II (Top GEN, Inc)
# Topoisomerase II (Top GEN, Inc) was diluted with the aforementioned nuclear extraction buffer, so as to attain a concentration of 0.75 unit/ml.
# A test sample (1 µl) and a buffer (18 µl) containing a mixture of required amounts of Milli Q, 4 × topoisomerase II buffer (250 mM Tris-HCl (pH 7.9), 600 mM KCl, 50 mM MgCl2, 0.5 mM EDTA, 2.5 mM ATP, 150 mg/ml BSA), and k DNA (312 ng/ml) were added to an Eppendorf tube, and the resultant mixture was vortexed and lightly centrifuged. Subsequently, diluted crude topoisomerase II or diluted purified topoisomerase (1 µl) was added to the mixture, and the mixture was vortexed and lightly centrifuged. (Meanwhile, instead of such topoisomerase II, Milli Q (1 µl) and 50% DMSO (1 µl) were added to a reaction system prepared as a control, which system contains neither enzyme nor xanthone derivative, and 50% DMSO (1 µl) was added to a reaction system containing no xanthone derivative.)
# The Eppendorf tube containing crude topoisomerase II and the Eppendorf tube containing purified topoisomerase II were allowed to stand for 30 minutes at 30°C and 37°C, respectively. Subsequently, SDS/PK/BJ (4 µl) was added to both of the tubes in ice, and both were allowed to stand at 50°C for five minutes, vortexed, and lightly centrifuged. After being allowed to stand again at 50°C for 30 minutes, they were vortexed and lightly centrifuged.
# (C) Agarose gel electrophoresis and densitometry
# The above-treated mixture was subjected to agarose gel electrophoresis (-EtBr 50 V) by use of a 1 × TBE buffer for electrophoresis (89 mM Tris Base/89 mM boric acid/2 mM EDTA2Na). After electrophoresis, gel staining was performed by use of 1 × TBE ([…]). After being decolorized, the gel was irradiated with UV rays, and bands on the gel were observed. The concentration of the agarose gel was 0.8%.
# The amount of reacted enzyme was quantified by transforming the depth of color of the bands on the gel into numerical values by use of a computer (Gel Plotting Macros installed in NIH Image). Data of bands of mini-circle DNA were processed by a computer for conversion into numerical values and calculation, to thereby obtain residual activity (%).
# [1] = test sample concentration 100 µg/ml
# [2] = test sample concentration 500 µg/ml
# [3] = test sample concentration 0.5 µg/ml
# [4] = test sample concentration 1 µg/ml
# [5] = test sample concentration 50 µg/ml
# [6] = test sample concentration 10 µg/ml
Compound,Residual activity (%) [1] [%],Residual activity (%) [2] [%],Residual activity (%) [3] [%],Residual activity (%) [6] [%],other results
"Oc1ccc(C=CC=Cc2ccc(O)cc2)cc1 [4,4-(1,3-Butadiene-1,4-diyl)bis-phenol, 4,4-(1,3-butadiene-1,4-diyl)bis-phenol]",28,0,,,
"Oc1ccc([C@H]2c3c(O)cc4c5c3[C@@H]([C@@H](c3ccc(O)cc3)c3c(O)cc(O)cc3[C@@H]5[C@@H](c3ccc(O)cc3)O4)[C@@H]2c2cc(O)cc(O)c2)cc1 [Davidiol A, davidiol A]",3,2,,,
"Oc1ccc([C@H]2Oc3cc(O)cc4c3[C@@H]2c2cc(O)cc3c2[C@@H](c2cc(O)cc5c2[C@@H]4[C@H](c2ccc(O)cc2)O5)[C@H](c2ccc(O)cc2)O3)cc1 [α-Viniferin, α-viniferin]",,,41,,Residual activity (%) [4]: 38%; Residual activity (%) [5]: 0%
hopeaphenol,4,1,,,
kobophenol A,,,68,59,Residual activity (%) [5]: 18%
leachianol A,1,2,,,
leachianol B,1,1,,,
miyabenol A,,,32,0,Residual activity (%) [4]: 13%
miyabenol C,,,57,0,Residual activity (%) (test sample concentration 2 µg/ml): 42%
